Measured values: patent US8609661B2, “Pyrimido-pyrrolo-quinoxalinedione inhibitors of cystic fibrosis transmembrane conductance regulator protein and uses therefor” (The Regents of the University of California, priority 2009, dated 2013)
Like-named read-outs stand apart in the source and are kept apart here.

Key:
[1] = molecular target: CFTR (Homo sapiens, UniProt P13569); settings: literature; depending on cell type and membrane potential; read-out: IC50 for CFTR chloride conductance block; cited from earlier work
[2] = molecular target: T1, human wildtype CFTR (Homo sapiens, UniProt P13569); test: Fluorescence platereader assay of CFTR-mediated iodide influx (YFP quenching) in FRT cells; assay type: cell-based; settings: for inhibition at 5 µM / inhibition at 25 µM: FRT; for IC50: apparent IC50 from concentration-inhibition data, fluorescence platereader assay
T1 construct: expressed in transfected cells; host or cells: Fischer rat thyroid (FRT) cells
Method in brief: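 Fischer rat thyroid cells co-expressing human wildtype CFTR and the YFP-H148Q/1152L halide sensor were seeded at 20,000 cells per well in 96-well black-walled plates and assayed 48 h later at confluence. After PBS washes and a 15 min incubation, CFTR was maximally activated with an agonist mixture. Fluorescence was recorded for 2 s before and 10 s after adding 160 μL iodide-substituted PBS, and iodide influx rates came from non-linear regression.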

[3] = Table 2, screening, 5 μM, read-out: % Inhibition at 5 μM
[4] = Table 2, screening, 25 μM, read-out: % Inhibition at 25 μM

T1 sequence (P13569 whole entry): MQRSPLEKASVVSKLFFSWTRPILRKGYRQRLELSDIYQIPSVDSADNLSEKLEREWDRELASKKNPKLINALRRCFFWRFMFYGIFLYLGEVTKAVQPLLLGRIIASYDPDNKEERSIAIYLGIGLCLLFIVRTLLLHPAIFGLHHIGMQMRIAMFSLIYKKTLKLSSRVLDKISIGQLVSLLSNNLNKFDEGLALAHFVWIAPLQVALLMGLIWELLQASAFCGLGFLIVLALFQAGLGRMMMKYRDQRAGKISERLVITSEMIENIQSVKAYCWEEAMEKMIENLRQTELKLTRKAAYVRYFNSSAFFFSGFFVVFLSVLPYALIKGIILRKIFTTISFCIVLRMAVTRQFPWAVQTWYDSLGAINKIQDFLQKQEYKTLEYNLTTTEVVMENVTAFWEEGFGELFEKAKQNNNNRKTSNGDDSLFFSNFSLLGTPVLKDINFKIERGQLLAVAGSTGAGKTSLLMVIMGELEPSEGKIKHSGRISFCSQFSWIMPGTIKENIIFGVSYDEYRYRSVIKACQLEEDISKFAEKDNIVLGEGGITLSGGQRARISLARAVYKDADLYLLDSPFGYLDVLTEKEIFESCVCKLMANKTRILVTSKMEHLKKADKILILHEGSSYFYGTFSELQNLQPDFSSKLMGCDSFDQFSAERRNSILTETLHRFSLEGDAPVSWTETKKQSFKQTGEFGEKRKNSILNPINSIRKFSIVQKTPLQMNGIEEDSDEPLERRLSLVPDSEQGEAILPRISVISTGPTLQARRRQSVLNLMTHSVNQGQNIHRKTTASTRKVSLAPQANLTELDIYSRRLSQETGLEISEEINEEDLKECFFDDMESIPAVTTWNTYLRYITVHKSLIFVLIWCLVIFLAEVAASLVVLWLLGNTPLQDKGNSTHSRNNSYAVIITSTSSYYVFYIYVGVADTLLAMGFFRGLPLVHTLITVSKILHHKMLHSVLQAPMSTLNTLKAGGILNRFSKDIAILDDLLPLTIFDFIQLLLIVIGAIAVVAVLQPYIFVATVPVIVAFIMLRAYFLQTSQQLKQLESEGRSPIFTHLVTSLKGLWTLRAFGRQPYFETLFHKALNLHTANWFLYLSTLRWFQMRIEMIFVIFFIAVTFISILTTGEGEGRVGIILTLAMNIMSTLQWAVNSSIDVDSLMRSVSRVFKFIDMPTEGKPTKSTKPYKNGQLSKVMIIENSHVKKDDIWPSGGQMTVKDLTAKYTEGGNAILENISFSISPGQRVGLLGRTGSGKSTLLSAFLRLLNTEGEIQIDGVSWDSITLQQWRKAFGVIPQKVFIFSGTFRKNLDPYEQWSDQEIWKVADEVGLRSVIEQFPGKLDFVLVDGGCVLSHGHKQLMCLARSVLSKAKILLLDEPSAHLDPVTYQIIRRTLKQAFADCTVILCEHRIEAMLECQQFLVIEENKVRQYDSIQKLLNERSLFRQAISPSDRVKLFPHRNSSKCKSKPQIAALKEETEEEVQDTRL
Chain of CFTR (P13569 whole entry, species assumed): as the sequence (P13569 whole entry) above

SMILES	inhibition at 5 µM [2, 3] [%]	inhibition at 25 µM [2, 4] [%]	further results
O=C(CNc1ccc2ccccc2c1)N/N=C/c1cc(Br)c(O)c(Br)c1O [GlyH-101]			IC50 [1]: ~5000 nM
Cc1cc2c(cc1C)-n1c(-c3ccccc3)c3c(=O)n(C)c(=O)n(C)c3c1C(c1cccc(O)c1)N2 (stereo not drawn) [PPQ-223, 2,3,7,9-Tetramethyl-11-phenyl-6-(3-hydroxyphenyl)-5,6-dihydro-pyrimido[4′,5′-3,4]pyrrolo[1,2-a]quinoxaline-8,10-(7H,9H)-dione]	36	92	
Cn1c(=O)c2c(-c3ccccc3)n3c(c2n(C)c1=O)C(c1cccc(O)c1)Nc1ccccc1-3 (stereo not drawn) [PPQ-240, 7,9-Dimethyl-11-phenyl-6-(3-hydroxyphenyl)-5,6-dihydro-pyrimido[4′,5′-3,4]pyrrolo[1,2-a]quinoxaline-8,10-(7H,9H)-dione]	30	74	
Cn1c(=O)c2c(-c3ccccc3)n3c(c2n(C)c1=O)C(c1ccccc1)Nc1ccccc1-3 (stereo not drawn) [PPQ-206, 7,9-Dimethyl-11-phenyl-6-phenyl-5,6-dihydro-pyrimido[4′,5′-3,4]pyrrolo[1,2-a]quinoxaline-8,10-(7H,9H)-dione]			IC50 [2]: 2500 nM
COc1ccc(O)c(C2Nc3ccccc3-n3c(-c4ccccc4)c4c(=O)n(C)c(=O)n(C)c4c32)c1 (stereo not drawn)	< 10	33	
COc1cccc(C2Nc3ccccc3-n3c(-c4ccccc4F)c4c(=O)n(C)c(=O)n(C)c4c32)c1 (stereo not drawn) [PPQ-211, 7,9-Dimethyl-11-(2-fluorophenyl)-6-(3-methoxyphenyl)-5,6-dihydro-pyrimido[4′,5′-3,4]pyrrolo[1,2-a]quinoxaline-8,10-(7H,9H)-dione]	62	> 95	inhibition at 5 µM ([2]; read-out: % inhibition at 25/5 μM (5 μM value), Table 1, 5 μM compound): 62%; IC50 [2]: 2000 nM
COc1cc(O)ccc1C1Nc2ccccc2-n2c(-c3ccccc3)c3c(=O)n(C)c(=O)n(C)c3c21 (stereo not drawn) [PPQ-208, 7,9-Dimethyl-11-phenyl-6-(2-methoxy-4-hydroxyphenyl)-5,6-dihydro-pyrimido[4′,5′-3,4]pyrrolo[1,2-a]quinoxaline-8,10-(7H,9H)-dione]	13	56	inhibition at 25 µM ([2]; read-out: % inhibition at 25/5 μM (25 μM value), Table 1, 25 μM compound): 56%; IC50 [2]: 100000 nM
COc1cc(C2Nc3ccccc3-n3c(-c4ccccc4C)c4c(=O)n(C)c(=O)n(C)c4c32)ccc1O (stereo not drawn) [PPQ-227, 7,9-Dimethyl-11-(2-methylphenyl)-6-(3-methoxy-4-hydroxyphenyl)-5,6-dihydro-pyrimido[4′,5′-3,4]pyrrolo[1,2-a]quinoxaline-8,10-(7H,9H)-dione]	10	78	
Cc1ccccc1-c1c2c(=O)n(C)c(=O)n(C)c2c2n1-c1ccccc1NC2c1ccco1 (stereo not drawn) [PPQ-108, 7,9-Dimethyl-11-(2-methylphenyl)-6-(furan-2-yl)-5,6-dihydro-pyrimido[4′,5′-3,4]pyrrolo[1,2-a]quinoxaline-8,10-(7H,9H)-dione]	18	70	
Cc1cc2c(cc1C)-n1c(-c3ccccc3)c3c(=O)n(C)c(=O)n(C)c3c1C(c1cc(O)ccc1O)N2 (stereo not drawn) [PPQ-247, 2,3,7,9-Tetramethyl-11-phenyl-6-(2,5-dihydroxyphenyl)-5,6-dihydro-pyrimido[4′,5′-3,4]pyrrolo[1,2-a]quinoxaline-8,10-(7H,9H)-dione]	13	58	
Cc1ccc(C(=O)Nc2ccccc2-n2cc3c(c2-c2ccccc2)c(=O)n(C)c(=O)n3C)o1 [PPQ-102b, N-(2-(1,3-dimethyl-2,4-dioxo-5-phenyl-3,4-dihydro-1H-pyrrolo[3,4-d]pyrimidin-6(2H)-yl)phenyl)-5-methylfuran-2-carboxamide]			CFTR inhibition activity ([2]; structure-activity analysis): abolished CFTR inhibition activity
Cc1ccccc1-c1c2c(=O)n(C)c(=O)n(C)c2c2n1-c1ccccc1NC2c1cccc(F)c1 (stereo not drawn) [PPQ-229, 7,9-Dimethyl-11-(2-methylphenyl)-6-(3-fluorophenyl)-5,6-dihydro-pyrimido[4′,5′-3,4]pyrrolo[1,2-a]quinoxaline-8,10-(7H,9H)-dione]	57	90	
Cc1cccc(C2Nc3ccccc3-n3c(-c4ccccc4)c4c(=O)n(C)c(=O)n(C)c4c32)c1 (stereo not drawn) [PPQ-232, 7,9-Dimethyl-11-phenyl-6-(3-methylphenyl)-5,6-dihydro-pyrimido[4′,5′-3,4]pyrrolo[1,2-a]quinoxaline-8,10-(7H,9H)-dione]	67	67	
Cc1cccc(-c2c3c(=O)n(C)c(=O)n(C)c3c3n2-c2ccccc2NC3c2cccc(O)c2)c1 (stereo not drawn) [PPQ-228, 7,9-Dimethyl-11-(3-methylphenyl)-6-(3-hydroxyphenyl)-5,6-dihydro-pyrimido[4′,5′-3,4]pyrrolo[1,2-a]quinoxaline-8,10-(7H,9H)-dione]	30	83	
COc1ccc(-c2c3c(=O)n(C)c(=O)n(C)c3c3n2-c2ccccc2NC3c2ccccc2)cc1 (stereo not drawn)	< 10	39	
COc1cc(O)ccc1C1Nc2ccccc2-n2c(-c3cccc(C)c3)c3c(=O)n(C)c(=O)n(C)c3c21 (stereo not drawn) [PPQ-245, 7,9-Dimethyl-11-(3-methylphenyl)-6-(2-methoxy-4-hydroxyphenyl)-5,6-dihydro-pyrimido[4′,5′-3,4]pyrrolo[1,2-a]quinoxaline-8,10-(7H,9H)-dione]	20	55	
Cc1cc2c(cc1C)-n1c(-c3ccccc3)c3c(=O)n(C)c(=O)n(C)c3c1C(c1ccco1)N2 (stereo not drawn) [PPQ-107, 2,3,7,9-Tetramethyl-11-phenyl-6-(furan-2-yl)-5,6-dihydro-pyrimido[4′,5′-3,4]pyrrolo[1,2-a]quinoxaline-8,10-(7H,9H)-dione]	24	87	
COc1cccc(C2Nc3ccccc3-n3c(-c4cccc(C)c4)c4c(=O)n(C)c(=O)n(C)c4c32)c1O (stereo not drawn)	< 10	31	
Cn1c(=O)c2c(-c3ccccc3)n3c(c2n(C)c1=O)C(c1ccco1)Nc1ccccc1-3 (stereo not drawn) [PPQ-112, 7,9-Dimethyl-11-phenyl-6-(5-furan-2-yl)-5,6-dihydro-pyrimido[4′,5′-3,4]pyrrolo[1,2-a]quinoxaline-8,10-(7H,9H)-dione]	11	54	
Cc1cccc(-c2c3c(=O)n(C)c(=O)n(C)c3c3n2-c2ccccc2NC3c2ccc(C)o2)c1 (stereo not drawn) [PPQ-101, 7,9-Dimethyl-11-(3-methylphenyl)-6-(5-methylfuran-2-yl)-5,6-dihydro-pyrimido[4′,5′-3,4]pyrrolo[1,2-a]quinoxaline-8,10-(7H,9H)-dione]	> 95	> 95	IC50 [2]: 700 nM
Cn1c(=O)c2c(-c3ccccc3F)n3c(c2n(C)c1=O)C(c1ccc(F)cc1F)Nc1ccccc1-3 (stereo not drawn) [PPQ-244, 7,9-Dimethyl-11-(2-fluorophenyl)-6-(2,4-difluorophenyl)-5,6-dihydro-pyrimido[4′,5′-3,4]pyrrolo[1,2-a]quinoxaline-8,10-(7H,9H)-dione]	32	56	
Cc1cccc(-c2c3c(=O)n(C)c(=O)n(C)c3c3n2-c2ccccc2NC3c2ccc(F)cc2)c1 (stereo not drawn) [PPQ-238, 7,9-Dimethyl-11-(3-methylphenyl)-6-(4-fluorophenyl)-5,6-dihydro-pyrimido[4′,5′-3,4]pyrrolo[1,2-a]quinoxaline-8,10-(7H,9H)-dione]	22	57	
Cn1c(=O)c2c(-c3ccccc3F)n3c(c2n(C)c1=O)C(c1ccc(Cl)cc1)Nc1ccccc1-3 (stereo not drawn)	< 10	44	
Cc1ccc(-c2c3c(=O)n(C)c(=O)n(C)c3c3n2-c2ccccc2NC3c2cccc(F)c2F)cc1 (stereo not drawn)	27	31	
COc1cc(C2Nc3ccccc3-n3c(-c4ccccc4)c4c(=O)n(C)c(=O)n(C)c4c32)ccc1O (stereo not drawn) [PPQ-248, 7,9-Dimethyl-11-phenyl-6-(3-methoxy-4-hydroxyphenyl)-5,6-dihydro-pyrimido[4′,5′-3,4]pyrrolo[1,2-a]quinoxaline-8,10-(7H,9H)-dione]	5	64	
Cc1cccc(-c2c3c(=O)n(C)c(=O)n(C)c3c3n2-c2ccccc2NC3c2ccco2)c1 (stereo not drawn) [PPQ-106, 7,9-Dimethyl-11-(3-methylphenyl)-6-(furan-2-yl)-5,6-dihydro-pyrimido[4′,5′-3,4]pyrrolo[1,2-a]quinoxaline-8,10-(7H,9H)-dione]	49	96	
Cc1ccc(C2Nc3ccccc3-n3c(-c4ccccc4C)c4c(=O)n(C)c(=O)n(C)c4c32)cc1 (stereo not drawn)	13	38	
Cc1ccccc1-c1c2c(=O)n(C)c(=O)n(C)c2c2n1-c1ccccc1NC2c1cccs1 (stereo not drawn) [PPQ-117, 7,9-Dimethyl-11-(2-methylphenyl)-6-(thienyl-2-yl)-5,6-dihydro-pyrimido[4′,5′-3,4]pyrrolo[1,2-a]quinoxaline-8,10-(7H,9H)-dione]	19	67	
COc1ccccc1C1Nc2cc(C)c(C)cc2-n2c(-c3ccccc3)c3c(=O)n(C)c(=O)n(C)c3c21 (stereo not drawn)	< 10	47	
